Measurements as given in US5798365A, “Substituted quinoline derivatives, a process for their preparation, and their use” (Hoechst Aktiengesellschaft, priority 1994, dated 1998).
Values after ≈ are worked out from the molar mass of the structure shown. Where two headings read alike, the source gives them in different places.

Tests used:
[1] = tested on: HIV; experiment: Testing preparations against HIV in cell culture (infected human donor lymphocytes); type: cell-based; details: for MIC: Human immunodeficiency virus 1, 72 h, lowest concentration without giant cells; for IC50: Human immunodeficiency virus 1, Lymphocyte, 72 h
Experimental: Testing preparations against HIV in cell culture
Description of the method
The complete medium additionally contains 20% foetal calf serum and 40 IU/ml recombinant interleukin 2.
Lymphocytes which have been isolated from fresh donor blood by means of Ficoll® gradient centrifugation are cultured, at 37° C. for 36 h and under 5% CO2, in complete medium in the added presence of […] phytohemagglutinin (Wellcome). After the addition of 10% DMSO, the cells are frozen at a cell density of 5×10^6 and stored in liquid nitrogen. For the experiment, the cells are thawed, washed in RPMI medium and cultured for 3-4 days in complete medium.
The preparations for testing were dissolved in DMSO at a concentration of 16.7 mg/ml and diluted to 1 mg/ml in complete medium. 0.4 ml of medium was initially introduced in 24-well multiwell plates. After 0.1 ml of the dissolved preparation had been added to the upper row of the plate, a geometrical dilution series was produced by transferring 0.1 ml on each occasion. Preparation-free controls always contained 0.4 ml of complete medium containing 0.5% DMSO.
Lymphocyte cultures having a cell count of 5×10^5 cells/ml were infected by adding a 1/50 volume of the supernatant from lymphocyte cultures infected with HIV. The titer of these culture supernatants was determined, by end point dilution, to be 1-5×10^6 infectious units/ml. After incubating at 37° C. for 30 min, the infected lymphocytes were centrifuged off and taken up once again in the same volume of medium. 0.6 ml of this cell suspension was added to each of the wells in the test plate. The assay mixtures were incubated at 37° C. for 3 days.
The infected cell cultures were examined under the microscope for the presence of giant cells, which indicate that the virus is multiplying actively in the culture. The lowest preparation concentration at which no giant cells appeared was defined as the inhibitory concentration against HIV (MIC value). As a control, the presence of HIV antigen in the supernatants from the culture plates was determined using a test for HIV antigen in accordance with the manufacturer's (Organon) instructions.

[2] = molecular target: T1, HIV reverse transcriptase (Human immunodeficiency virus type 1 group M subtype B, UniProt P04585); experiment: Inhibition of HIV reverse transcriptase, scintillation proximity assay (SPA); type: biochemical; details: RT-SPA, 60 min, 37° C., read-out: Reverse Transcriptase Asaay IC-50 (converted)
T1 construct: purchased HT-Biotechnology LTD, Cambridge, UK; host or cells: E. coli
Experimental: Investigation of the ability of the substances to inhibit the HIV reverse transcriptase
The activity of the reverse transcriptase (RT) was measured by means of a scintillation proximity assay (SPA).
The reagent kit for the RT-SPA was obtained from Amersham/Buchler (Braunschweig). The RT enzyme (originating from HIV and cloned in E. coli) was provided by HT-Biotechnology LTD, Cambridge, UK.
The test was carried out in accordance with the supplier's (Amersham) methods manual--with the following modifications:
bovine serum albumin was added to the assay buffer to a final concentration of 0.5 mg/ml.
The test was carried out in Eppendorf reaction tubes using a mixture volume of […].
The supplier's RT concentrate (5000 U/ml) was diluted in 20 mM tris-HCl buffer; pH 7.2; 30% glycerol to an activity of 15 U/ml.
The assay mixtures were incubated for 60 min (at 37° C.).
After the reaction had been stopped and "developed" using the bead suspension, […] of assay mixture was transferred into 4.5 ml of 10 mM tris-HCl buffer; pH 7.4; 0.15M NaCl
and the tritium activity was measured in a β counter.
In order to carry out a preliminary test for inhibitor activity, the substances were dissolved in DMSO (stock solution concentration=1 mg/ml) and tested at 10^-1, 10^-2, 10^-3, etc. dilutions in DMSO.
In order to determine the IC50 values, the stock solutions of inhibitor were further diluted in 50 mM tris-HCl buffer, pH 8, and tested at suitable concentrations.
The concentration giving rise to 50% inhibition of the enzyme was ascertained from the graphic depiction of RT activity versus log Cinh.

[3] = HIV-infected lymphocytes, 3 days, 37° C.
[4] = HIV-infected lymphocytes, 3 days, 37° C., read-out: IC-50

SMILES	MIC [1, 3] [ng/mL]	IC50 [1, 4] [ng/mL]	IC50 ([2]; molar value in parentheses) [nM]	IC50 ([2]; unit as printed for compound 59) [nM]	IC50 [2] [nM]	IC50 ([1]; HIV-infected lymphocytes, 3 days, unit as printed for compound 66, read-out: IC-50) [ng/mL]	IC50 [1] [ng/mL]
CCOc1ccc2c(c1)C(=CCC(C)C)C(C)(C)C(=S)N2 [Compound 59]	< 20	~8 (≈ 0.0264 µM)	46	46.1			
CCCC=C1c2cc(Cl)ccc2NC(=NO)C1(C)C [Compound 60]	1.6 (≈ 0.00574 µM)	~0.3 (≈ 0.00108 µM)	12		10.8		
COc1ccc2c(c1)C(=CC(C)C)C(C)(C)C(=S)N2 [Compound 61]	20 (≈ 0.0726 µM)	~4 (≈ 0.0145 µM)	62		61.7		
COc1ccc2c(c1)C(=CCC(C)C)C(C)(C)C(=O)N2 [Compound 66]	< 100		70		69.5	~10 (≈ 0.0366 µM)	
CC(C)CC=C1c2ccccc2NC(=O)C12CCCC2 [Compound 67]	< 100	~20 (≈ 0.0742 µM)	91		89.1		
COc1ccc2c(c1)C(=CCC(C)C)C(C)(C)C(=S)N2 [Compound 69]	< 20		18		17.3		~1.8 (≈ 0.00622 µM)
CC(C)CC=C1c2ccccc2NC(=S)C12CCCC2 [Compound 70]	20 (≈ 0.0701 µM)	~3 (≈ 0.0105 µM)	21		21		
CC/C=C1\c2cc(Cl)ccc2NC(=S)C1(C)C [Compound 71]	1.6 (≈ 0.00602 µM)		5		3.76		
CCC/C=C1\c2cc(Cl)ccc2NC(=O)C1(C)C [Compound 73, E-4-n-butylene-6-chloro-3,4-dihydro-3,3-dimethylquinolin-2(1H)-one]	< 40	20 (≈ 0.0758 µM)	30		30.3		
CCC/C=C1\c2cc(Cl)ccc2NC(=S)C1(C)C [Compound 75, E-4-n-butylene-6-chloro-3,4-dihydro-3,3-dimethylquinolin-2(1H)-thione]	4 (≈ 0.0143 µM)	~1.8 (≈ 0.00643 µM)			< 3.57		
COc1ccc2c(c1)C(=C1CCCC1)C(C)(C)C(=O)N2 [Compound 138]	> 200	30 (≈ 0.111 µM)			225		
COc1ccc2c(c1)C(=C1CCCC1)C(C)(C)C(=S)N2 [Compound 140]	200 (≈ 0.696 µM)	6 (≈ 0.0209 µM)			17.4		
CCOC(=O)/C=C1\c2cc(Cl)ccc2NC(=S)C1(C)C [Compound 142]	< 200	4 (≈ 0.0129 µM)			123		
